Experimental data taken from PubChem BioAssay AID256 (DTP/NCI, 2004).
“And” between values parts separate entries of the source, which are not always exact repeats. Equal values may be shown once. Toxic doses and inconclusive results are not listed.

System: CD2F1 mice, L1210 leukemia ip, survival T/C
Assay: NCI In Vivo Anticancer Drug Screen. Data for tumor model L1210 Leukemia (intraperitoneal) in CD2F1 (CDF1) mice
Conditions: higher = longer survival
Outline: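 Antitumor effect is scored in animals hosting a serially transplanted tumor. Values compare compound-dosed animals against vehicle-only controls as a simple quotient.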

[1] = endpoint: mean survival time, dose: 12.5 mg/kg/injection, schedule: Q04DX002 (ip), vehicle: saline with Tween-80
[2] = endpoint: mean survival time, dose: 25.0 mg/kg/injection, schedule: Q04DX002 (ip), vehicle: saline with Tween-80
[3] = endpoint: mean survival time, dose: 100.0 mg/kg/injection, schedule: Q01DX001 (ip), vehicle: saline with Tween-80
[4] = endpoint: mean survival time, dose: 200.0 mg/kg/injection, schedule: Q01DX001 (ip), vehicle: saline with Tween-80
[5] = endpoint: mean survival time, dose: 200.0 mg/kg/injection, schedule: Q01DX009 (ip), vehicle: saline with Tween-80
[6] = endpoint: mean survival time, dose: 400.0 mg/kg/injection, schedule: Q01DX001 (ip), vehicle: saline with Tween-80
[7] = endpoint: mean survival time, dose: 100.0 mg/kg/injection, schedule: Q01DX009 (ip), vehicle: saline
[8] = endpoint: mean survival time, dose: 100.0 mg/kg/injection, schedule: Q01DX001 (ip), vehicle: saline
[9] = endpoint: mean survival time, dose: 200.0 mg/kg/injection, schedule: Q01DX001 (ip), vehicle: saline
[10] = endpoint: mean survival time, dose: 400.0 mg/kg/injection, schedule: Q01DX001 (ip), vehicle: saline
[11] = endpoint: mean survival time, dose: 50.0 mg/kg/injection, schedule: Q01DX009 (ip), vehicle: saline with Tween-80
[12] = endpoint: mean survival time, dose: 100.0 mg/kg/injection, schedule: Q01DX009 (ip), vehicle: saline with Tween-80
[13] = endpoint: mean survival time, dose: 100.0 mg/kg/injection, schedule: Q04DX003 (ip), vehicle: saline with Tween-80
[14] = endpoint: mean survival time, dose: 200.0 mg/kg/injection, schedule: Q04DX003 (ip), vehicle: saline with Tween-80

## O=c1[nH]c(=O)n(C2CC(O)C(CO)O2)cc1C(F)(F)F (stereo not drawn)
endpoint: mean survival time, dose: 16.0 mg/kg/injection, schedule: Q01DX009 (ip), vehicle: water
  T/C: 152 % of control
endpoint: mean survival time, dose: 16.0 mg/kg/injection, schedule: Q03HX016 (ip), vehicle: water
  T/C: 123 % of control
endpoint: mean survival time, dose: 16.0 mg/kg/injection, schedule: Q03HX024 (ip), vehicle: water
  T/C: 171 % of control
endpoint: mean survival time, dose: 64.0 mg/kg/injection, schedule: Q01DX009 (ip), vehicle: water
  T/C: 152 % of control
endpoint: mean survival time, dose: 64.0 mg/kg/injection, schedule: Q04DX003 (ip), vehicle: water
  T/C: 118 % of control
endpoint: mean survival time, dose: 128.0 mg/kg/injection, schedule: Q03HX016 (ip), vehicle: water
  T/C: 157 % of control
endpoint: mean survival time, dose: 128.0 mg/kg/injection, schedule: Q03HX024 (ip), vehicle: water
  T/C: 109 % of control
endpoint: mean survival time, dose: 128.0 mg/kg/injection, schedule: Q04DX003 (ip), vehicle: water
  T/C: 112 % of control
endpoint: mean survival time, dose: 128.0 mg/kg/injection, schedule: Q08DX002 (ip), vehicle: water
  T/C: 100 % of control
endpoint: mean survival time, dose: 256.0 mg/kg/injection, schedule: Q01DX001 (ip), vehicle: water
  T/C: 108 % of control
endpoint: mean survival time, dose: 256.0 mg/kg/injection, schedule: Q01DX009 (ip), vehicle: water
  T/C: 112 % of control
endpoint: mean survival time, dose: 256.0 mg/kg/injection, schedule: Q03HX008 (ip), vehicle: water
  T/C: 152 % of control
endpoint: mean survival time, dose: 256.0 mg/kg/injection, schedule: Q03HX016 (ip), vehicle: water
  T/C: 163 % of control
endpoint: mean survival time, dose: 256.0 mg/kg/injection, schedule: Q04DX003 (ip), vehicle: water
  T/C: 118 % of control
endpoint: mean survival time, dose: 256.0 mg/kg/injection, schedule: Q08DX002 (ip), vehicle: water
  T/C: 109 % of control
endpoint: mean survival time, dose: 512.0 mg/kg/injection, schedule: Q01DX001 (ip), vehicle: water
  T/C: 114 % of control
endpoint: mean survival time, dose: 512.0 mg/kg/injection, schedule: Q03HX008 (ip), vehicle: water
  T/C: 153 % of control
endpoint: mean survival time, dose: 512.0 mg/kg/injection, schedule: Q08DX002 (ip), vehicle: water
  T/C: 112 % of control
endpoint: mean survival time, dose: 1024.0 mg/kg/injection, schedule: Q08DX002 (ip), vehicle: water
  T/C: 114 % of control
endpoint: mean survival time, dose: 2048.0 mg/kg/injection, schedule: Q01DX001 (ip), vehicle: water
  T/C: 121 % of control
endpoint: mean survival time, dose: 2048.0 mg/kg/injection, schedule: Q08DX002 (ip), vehicle: water
  T/C: 124 % of control

## Cc1cn2c(nc1=O)OC1C(O)C(CCl)OC12 (stereo not drawn)
endpoint: median survival time, dose: 12.5 mg/kg/injection, schedule: Q01DX005 (ip), vehicle: saline with Tween-80
  T/C: 103 % of control
endpoint: median survival time, dose: 25.0 mg/kg/injection, schedule: Q01DX005 (ip), vehicle: saline with Tween-80
  T/C: 96 % of control
endpoint: median survival time, dose: 50.0 mg/kg/injection, schedule: Q01DX005 (ip), vehicle: saline with Tween-80
  T/C: 103 % of control
endpoint: median survival time, dose: 100.0 mg/kg/injection, schedule: Q01DX005 (ip), vehicle: saline with Tween-80
  T/C: 95 % of control
endpoint: median survival time, dose: 200.0 mg/kg/injection, schedule: Q01DX005 (ip), vehicle: saline with Tween-80
  T/C: 94 % of control

## CCC(CNCCCCCC(=O)O)(C(=O)O)C(=O)O
[1]
  T/C: 90 % of control
[2]
  T/C: 98 % of control
endpoint: mean survival time, dose: 50.0 mg/kg/injection, schedule: Q04DX002 (ip), vehicle: saline with Tween-80
  T/C: 94 % of control

## O=S(=O)(c1ccc(Cl)cc1)c1ccc(Cl)cc1
endpoint: mean survival time, dose: 100.0 mg/kg/injection, schedule: Q01DX001 (ip), vehicle: Klucel (hydroxypropylcellulose) (HPC)
  T/C: 93 % of control
endpoint: mean survival time, dose: 200.0 mg/kg/injection, schedule: Q01DX001 (ip), vehicle: Klucel (hydroxypropylcellulose) (HPC)
  T/C: 90 % of control
endpoint: mean survival time, dose: 400.0 mg/kg/injection, schedule: Q01DX001 (ip), vehicle: Klucel (hydroxypropylcellulose) (HPC)
  T/C: 96 % of control

## OCC(O)c1ccccc1 (stereo not drawn)
endpoint: mean survival time, dose: 100.0 mg/kg/injection, schedule: Q04DX002 (ip), vehicle: saline
  T/C: 97 % of control
endpoint: mean survival time, dose: 200.0 mg/kg/injection, schedule: Q04DX002 (ip), vehicle: saline
  T/C: 101 % of control
endpoint: mean survival time, dose: 400.0 mg/kg/injection, schedule: Q04DX002 (ip), vehicle: saline
  T/C: 104 % of control

## COc1cc(-c2nc(-c3ccc(N=Cc4ccc(N(CCCOS(C)(=O)=O)CCCOS(C)(=O)=O)cc4)cc3)cs2)ccc1OCc1ccccc1
[3]
  T/C: 91 % of control
[4]
  T/C: 95 % of control
[5]
  T/C: 86 % of control
[6]
  T/C: 89 % of control

## Nc1nc(F)nc2c1ncn2C1OC(COC=O)C(OC=O)C1O (stereo not drawn) (tested in a mixture with another compound)
[7]
  T/C: 205 % of control
endpoint: mean survival time, dose: 125.0 mg/kg/injection, schedule: Q01DX009 (ip), vehicle: saline
  T/C: 243 % of control and 419 % of control
endpoint: mean survival time, dose: 150.0 mg/kg/injection, schedule: Q01DX009 (ip), vehicle: saline with Tween-80
  T/C: 512 % of control
endpoint: mean survival time, dose: 150.0 mg/kg/injection, schedule: Q01DX009 (ip), vehicle: saline
  T/C: 288 % of control and 370 % of control
endpoint: mean survival time, dose: 175.0 mg/kg/injection, schedule: Q01DX005 (ip), vehicle: saline with Tween-80
  T/C: 163 % of control
endpoint: mean survival time, dose: 175.0 mg/kg/injection, schedule: Q01DX009 (ip), vehicle: saline with Tween-80
  T/C: 551 % of control
endpoint: mean survival time, dose: 175.0 mg/kg/injection, schedule: Q01DX009 (ip), vehicle: saline
  T/C: 318 % of control
endpoint: mean survival time, dose: 200.0 mg/kg/injection, schedule: Q01DX005 (ip), vehicle: saline with Tween-80
  T/C: 179 % of control
[5]
  T/C: 298 % of control
endpoint: mean survival time, dose: 250.0 mg/kg/injection, schedule: Q01DX009 (ip), vehicle: saline with Tween-80
  T/C: 189 % of control

## Cc1ccc(S(=O)(=O)N/N=C/c2ccccc2Cl)cc1
endpoint: mean survival time, dose: 12.5 mg/kg/injection, schedule: Q01DX009 (ip), vehicle: Klucel (hydroxypropylcellulose) (HPC)
  T/C: 93 % of control
endpoint: mean survival time, dose: 25.0 mg/kg/injection, schedule: Q01DX009 (ip), vehicle: Klucel (hydroxypropylcellulose) (HPC)
  T/C: 91 % of control
endpoint: mean survival time, dose: 50.0 mg/kg/injection, schedule: Q01DX009 (ip), vehicle: Klucel (hydroxypropylcellulose) (HPC)
  T/C: 90 % of control
endpoint: mean survival time, dose: 100.0 mg/kg/injection, schedule: Q01DX009 (ip), vehicle: Klucel (hydroxypropylcellulose) (HPC)
  T/C: 98 % of control

## NC(=S)NNc1c(NNC(N)=S)c(=O)c1=O
[8]
  T/C: 93 % of control
[9]
  T/C: 98 % of control
[10]
  T/C: 102 % of control

## OC(c1cc2ccc(C(F)(F)F)cc2c2cc(C(F)(F)F)ccc12)C1CCCCN1 (stereo not drawn)
endpoint: mean survival time, dose: 9.4 mg/kg/injection, schedule: Q01DX009 (ip), vehicle: saline
  T/C: 101 % of control
endpoint: mean survival time, dose: 18.8 mg/kg/injection, schedule: Q01DX009 (ip), vehicle: saline
  T/C: 102 % of control
endpoint: mean survival time, dose: 37.5 mg/kg/injection, schedule: Q01DX009 (ip), vehicle: saline
  T/C: 96 % of control

## CCCC/C=C/C(=O)O
[11]
  T/C: 98 % of control
[12]
  T/C: 98 % of control
[5]
  T/C: 102 % of control

## N#[O+].O=[N+]([O-])O.[Co].[NH2-].[NH2-].[NH2-].[NH2-].[NH2-]
endpoint: mean survival time, dose: 6.25 mg/kg/injection, schedule: Q04DX002 (ip), vehicle: saline with Tween-80
  T/C: 95 % of control
[1]
  T/C: 88 % of control
[2]
  T/C: 98 % of control

## Nc1ccc2cc(Cl)ccc2c1
[11]
  T/C: 103 % of control
[12]
  T/C: 105 % of control
[13]
  T/C: 95 % of control
[14]
  T/C: 95 % of control

## C=CC(=O)NC(C)(C)CC(C)=O
[3]
  T/C: 98 % of control
[8]
  T/C: 103 % of control
[7]
  T/C: 100 % of control
[4]
  T/C: 102 % of control
[9]
  T/C: 97 % of control
endpoint: mean survival time, dose: 200.0 mg/kg/injection, schedule: Q01DX009 (ip), vehicle: saline
  T/C: 100 % of control
[6]
  T/C: 102 % of control
[10]
  T/C: 102 % of control

## O=C(NC1CCCCC1)NC1CCC(CC2CCCCC2)CC1 (stereo not drawn)
[13]
  T/C: 98 % of control
[14]
  T/C: 96 % of control
endpoint: mean survival time, dose: 400.0 mg/kg/injection, schedule: Q04DX003 (ip), vehicle: saline with Tween-80
  T/C: 96 % of control

## O=[N+]([O-])c1cccc2c1ccc1cccnc12
endpoint: mean survival time, dose: 100.0 mg/kg/injection, schedule: Q04DX002 (ip), vehicle: saline with Tween-80
  T/C: 90 % of control
endpoint: mean survival time, dose: 200.0 mg/kg/injection, schedule: Q04DX002 (ip), vehicle: saline with Tween-80
  T/C: 95 % of control
endpoint: mean survival time, dose: 400.0 mg/kg/injection, schedule: Q04DX002 (ip), vehicle: saline with Tween-80
  T/C: 98 % of control

## S=C(NCCCCCNC(=S)Nc1ccccc1)Nc1ccccc1
endpoint: mean survival time, dose: 100.0 mg/kg/injection, schedule: Q04DX003 (ip), vehicle: acetone
  T/C: 96 % of control
endpoint: mean survival time, dose: 200.0 mg/kg/injection, schedule: Q04DX003 (ip), vehicle: acetone
  T/C: 108 % of control

## CC1=NOC(=O)C1C(C)(C)C1C(=O)ON=C1C (stereo not drawn)
[12]
  T/C: 107 % of control
[5]
  T/C: 104 % of control
endpoint: mean survival time, dose: 400.0 mg/kg/injection, schedule: Q01DX009 (ip), vehicle: saline with Tween-80
  T/C: 104 % of control
